The source of these data is patent publication US8222261B2, “Chemical compounds” (GlaxoSmithKline, LLC, priority 2006, dated 2012).

Holding throughout (type): in vivo
One assay relates to Male Sprague Dawley rats. Description: Whole body insulin sensitivity, euglycemic hyperinsulinemic clamp in rats. As to conditions: 10 mg/kg oral. How it is done:
Male Sprague Dawley rats, weighing at 300-350 gram, had catheters surgically implanted into the jugular and femoral veins and allowed to recover for one week following the surgery. On the day before the experiment, food was removed in the afternoon to fast the animals overnight. The following morning animals were randomly assigned to two treatment groups, vehicle (n=7) and or 10 mg/kg of a GPR119 agonist (Example 1, n=9). Blood samples were collected from the jugular vein for baseline glucose measurements prior to oral administration of the respective treatment. The euglycemic hyperinsulinemic clamp was initiated approximately 90 minutes following oral administration of the respective treatments, by starting the constant insulin infusion at a rate of 1 mU/kg/min human insulin (Humulin, Eli Lilly and Company, Indianapolis, Id.) into the femoral vein of conscious animals. Whole blood glucose levels were measured every 10 minutes throughout the clamp. As the plasma glucose levels began to fall exogenous glucose infusion was started at a variable rate adjusted to achieve a stable plasma glucose level of 90-100 mg/dl. The glucose infusion rate required to maintain euglycemia was recorded throughout the experiment for each animal, and represents a measure of insulin sensitivity. Plasma glucose and human insulin levels were measured at the end of the clamp (at 180 min) as described above. At the end of the study the rats were sacrificed by an overdose of Nembutal.
Data is represented as box plots summarizing the distribution of data for each treatment group, as described above. Horizontal lines represent the mean data. […] The data is represented as mean GIR±SEM. At steady state, 180 minutes after starting the clamp, the glucose infusion rate required to maintain euglycemia in Example 1 treated animals were three times that of vehicle treated animals.

The test system of a further assay is male C57BL/6 mice. Description: Oral glucose tolerance in normal mice. As to conditions: fasted mice, Example 1 30 mg/kg, DPPIV inhibitor 10 mg/kg oral, 2 g/kg dextrose oral 1 h after dosing. The method, then:
Nine weeks old male C57BL/6 mice (Taconic farms, USA) were fasted overnight and randomly assigned to three different treatment groups (n=9-10 per treatment arm) to receive vehicle (0.5% HPMC/0.1% Tween80), a GPR119 agonist (Example 1, 30 mg/kg) or a positive control (10 mg/kg), specifically a DPPIV inhibitor known to improve glucose tolerance in vivo by preventing degradation of the GLP-1 and GIP. Vehicle or compounds were delivered by oral gavage at a volume of 10 mL/kg, and the tip of tail was nicked using a scalpel to allow whole blood glucose measurements. One hour after administration of vehicle or test compounds, 2 g/kg of dextrose was administered by oral gavage. Whole blood glucose levels were determined from the abrasion at the tip of the tail at time points as indicated in FIG. 16 using a Glucometer (Freestyle, Therasense). At the end of the study the mice were sacrificed by cervical dislocation.

Assay [1] relates to transgenic wild-type (WT) and GPR119 knock-out (KO) mice. The experiment in a line: Effect on circulating GLP-1 and GIP in wild-type and GPR119 knock-out mice. As to conditions: 30 mg/kg oral gavage; for incretin hormone levels (total GLP-1 and GIP): 60 min after dosing. How it is done: 17 weeks old male transgenic wild-type (WT) and GPR119 knock-out (KO) mice (Charles River Laboratories, USA) were fasted overnight then randomly distributed into two treatment groups for each genotype with n=8 and n=10 animals per treatment group for KO and WT mice respectively. Animals received either vehicle (0.5% HPMC/0.1% Tween80) or a GPR119 agonist (Example 1) at a dose of 30 mg/kg (10 mL/kg), administered by oral gavage. Sixty minutes after the oral gavage the mice were anesthetized using isofluorane and a blood sample was collected by cardiac puncture, before sacrificing the animal by cervical dislocation. Blood samples were treated as described above for determination of incretin hormone levels. Plasma glucose levels were measured using an Olympus AU640 analyzer (Olympus America Inc, Melville, N.Y.), and insulin levels an electrochemoluminescence assay (Bioveris, Gaithersburg Md.).
Data is represented as box plots summarizing the distribution of data for each treatment group, as described above. Horizontal lines represent the mean data. FIG. 3 and FIG. 4 show total GLP-1 and GIP levels measured in circulation following administration of vehicle or 30 mg/kg GPR119 agonist (Example 1) in WT and KO mice.

In assay [2] the test system is Male Sprague-Dawley rats. Description: Glucose stimulated insulin secretion and glucose disposal in rats, intravenous glucose tolerance test. As to conditions: 10 mg/kg oral, 0.5 g/kg dextrose i.v. 90 min after dosing, vs vehicle. How it is done:
Male Sprague-Dawley rats (Charles River Laboratories, USA) had catheters surgically implanted into the jugular vein and allowed to recover for one week. On the day of the experiment, food was removed in the morning and animals were randomly assigned to two treatment groups, vehicle (n=8) or GPR119 agonist (Example 1; n=9). In the afternoon, baseline blood samples were collected prior to, and 90 minutes following oral administration of either vehicle (0.5% HPMC/0.1% Tween80) or 10 mg/kg Example 1. The intravenous glucose tolerance test was initiated immediately after the 90 minute blood sample by intravenous infusion of 0.5 g/kg dextrose over 15-30 seconds into the jugular vein, Blood samples were collected from the jugular vein at 2, 5, 10, 15, and 30 min and treated as described for the hyperglycemic clamp. Serum was collected for analysis of glucose levels using an Olympus AU640 clinical chemistry analyzer (Olympus America Inc, Melville, N.Y.) and insulin levels by an electrochemoluminescence assay (Bioveris, Gaithersburg Md.). The rats were sacrificed at the end of the study by an overdose of Nembutal.
FIG. 14 and FIG. 15 show circulating plasma glucose and insulin concentrations at each time point throughout the intravenous glucose tolerance test. The data is represented as the average glucose and insulin levels±SEM for all animals in for the two treatment groups.

In assay [3] the test system is Male Sprague-Dawley rats. Description: Oral glucose tolerance in rats. Particulars: fasted rats, 10 mg/kg oral. The method, then:
Eight weeks old male Sprague-Dawley rats had catheters surgically implanted into the jugular […] vein and allowed to recover for one week. Food was removed in the afternoon the day before the experiment to fast animals overnight. The following morning animals were randomly assigned to treatment groups to receive vehicle (n=7) (0.5% HPMC/0.1% Tween80), a GPR119 agonist (Example 1, 10 mg/kg) or a positive control (10 mg/kg), namely a DPPIV inhibitor as described above. Vehicle and compounds were delivered by oral gavage at a volume of […]. Two and a half hours after administration of vehicle or GPR119 agonist and one hour administration of DPPIV inhibitor, 2 g/kg dextrose was administered orally. […] The tubes were immediately centrifuged, plasma collected for subsequent measurement of glucose and hormone levels and stored at −80° C. Plasma glucose, insulin and total GLP-1 levels were measured as described above.
The data is represents as mean values±SEM from all animals within each treatment group.

Where [4] appears, read: rats, end of clamp (180 min), between treatment groups.

On to `CC(C)OC(=O)N1CCC(Oc2ncnc3c2CCN3c2ccc(S(C)(=O)=O)cc2F)CC1` [Example 1, 1-Methylethyl 4-({7-[2-fluoro-4-(methylsulfonyl)phenyl]-6,7-dihydro-5H-pyrrolo[2,3-d]pyrimidin-4-yl}oxy)-1-piperidinecarboxylate], for which the “whole body insulin sensitivity” value with Male Sprague Dawley rats (normal rats, euglycemic hyperinsulinemic clamp) is on record as “enhances”. Further, in the assay with Male Sprague Dawley rats (setting [4]), the “euglycemia (plasma glucose at the end of the clamp)” value was “no significant difference” and the “steady state insulin exposure” value was “no significant difference”. For the same molecule, the “glucose infusion rate required to maintain euglycemia, relative to vehicle” value in the assay on Male Sprague Dawley rats (rats, steady state 180 minutes after starting the clamp, insulin 1 mU/kg/min) was “three times”. For the same molecule, the “glucose disposal during the oral glucose tolerance test (whole blood glucose)” value with male C57BL/6 mice is reported as “significantly enhanced”. Also, the “incretin hormone levels (total GLP-1 and GIP)” value in assay [1] (GPR119 knock out mice) is recorded as “without effect”. In assay [1] (WT and KO mice, 60 min), the fasting glucose levels result is recorded as “not affected” and the fasting insulin levels result is “not affected”. Moreover, the “incretin hormone levels (total GLP-1 and GIP)” value in assay [1] (WT mice) was “increase”. In the assay on Male Sprague-Dawley rats [2], the “area under the glucose curve (AUC)” value is recorded as “significantly reduced”, the “area under the insulin curve” value is on record as “significantly increased”, the “peak (2 minute) insulin response” value is “significantly increased” and the “rate of glucose elimination” value was “significantly increased”. In addition, in the assay on Male Sprague-Dawley rats [3] (Example 1 2.5 h and DPPIV inhibitor 1 h before 2 g/kg dextrose oral), the “reduction of total glucose area under the curve (AUC)” value worked out at 38%. In addition, the “glucose excursion during the 120 minutes oral glucose tolerance test” value in the assay with Male Sprague-Dawley rats [3] (Example 1 2.5 h and DPPIV inhibitor 1 h before 2 g/kg dextrose oral, vs vehicle) is listed as “significantly decreased”. For the same molecule, the “baseline total GLP-1” value in the assay on Male Sprague-Dawley rats [3] (before the oral glucose load, compared to vehicle and DPPIV treated animals) is listed as “significantly increased”. Besides, the “Insulin AUC” value in the assay on Male Sprague-Dawley rats [3] (oral glucose tolerance test, between treatment groups) was “not significantly different”. Also, the “total GLP-1 AUC” value with Male Sprague-Dawley rats [3] (oral glucose tolerance test, compared to vehicle and DPPIV treated animals) is listed as “significantly increased”.
